Our source for the GI50 and TGI values is PubChem BioAssay (NCI).

Several values for one entry are separate records, joined by “and”; a condition that tells them apart may be missing. Equal values may be shown once.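 Interpolation was linear, between the two tested concentrations surrounding the appropriate level; five concentrations were tested over 48 hours in 96-well plates. At the GI50, growth is halved. TGI: total growth inhibition.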

The subject of the first assay is HCT-15 colon. Nature of the assay: NCI tumour cell line growth inhibition, 48 h.
On to `c1cnn2ncc(-c3ccnc(Nc4ccc5c(c4)OCCO5)n3)c2c1`, for which the GI50 is 0.0863 µM and the TGI was more than 25 µM.
For `Cc1ccc(-n2nc(C(C)(C)C)cc2NC(=O)NCc2cc(F)ccc2Oc2ccc3c(cnn3CCO)c2)cc1`, the GI50 was > 10 µM and 8.9 µM; the TGI was more than 100 µM.
As to `COc1ccc2[nH]c(-c3ccc(O)cc3)cc(=O)c2c1`, the TGI stood at 7.03 µM.
Still for that read-out and setting: to `Cc1cc(C)n(C2=NS(=O)(=O)c3ccccc3N2C)n1` belongs more than 100 µM.
For the molecule `COc1cccc2c(=O)c3c(sc12)c(NCCCNCCO)nc1ccccc13`, the GI50 was 1.51 µM and the TGI turned out to be 3.02 µM.
As to `O=C1c2cccc3cccc(c23)C(=O)N1O`, the TGI was more than 100 µM.
On to `COc1ccc(Nc2nccc(N3CCN(c4c5ccc(Cl)cc5nc5ccc(OC)cc45)CC3)n2)cc1`, for which the GI50 is 4.48 µM and the TGI is more than 100 µM.
As to `CC(=Nc1ccc(S(N)(=O)=O)cc1)c1c(O)[nH]c2ccccc12`, the GI50 was more than 25 µM and the TGI was more than 25 µM.
Take `COc1cc(CNc2nc3ccc(C(F)(F)F)cc3nc2-c2ccccc2)cc(OC)c1OC`: the TGI was more than 100 µM.
The molecule `CC1=NN(C(=O)c2ccncc2)C(=O)C1N=Nc1ccc(F)cc1` (centres undefined) had a TGI of more than 100 µM.
Take `C=CCNC(=O)N(CCC)CCCC(NC(C)=O)C(=O)NCc1ccccc1` (centres undefined): the TGI is more than 100 µM.
Same read-out and setting: to `CN1c2ccccc2SC2C(c3ccccc3)=NOC21` (centres undefined) belongs 43.7 µM.
Still for that read-out and setting: next, `COc1c(O)c(OC)c2oc(-c3ccc(O)cc3)c(OC)c(=O)c2c1O`: more than 100 µM.
Same read-out and setting: next, `COC(=O)C1C(=O)N(CCc2c[nH]c3ccccc23)C[C@@H]2CCC(=O)C[C@H]12` (some centres undefined): more than 100 µM; `C[C@]12C/C(=C/O)C(=O)C(O)=C1CC[C@@H]1C2CC[C@@]2(C)C1CC[C@@H]2O` (some centres undefined): 61.5 µM.
With `O=C1c2ccccc2-c2c1c1c(NCCCO)nc3ccccc3c1n2Cc1ccccc1`, the GI50 is 37.5 µM and the TGI is more than 100 µM.
Taken in the same sequence, the figures for `O=C(NCCN1CCNCC1)c1ccc(Nc2nc3ccccc3c3occc23)cc1` were 20 µM and 37.9 µM.

Another assay deals with UACC-257 melanoma. In words: NCI tumour cell line growth inhibition, 48 h.
The molecule `Cc1c2ccncc2c(C)c2c1[nH]c1ccc(O)c(OCC(F)(F)F)c12` registered a TGI of 21.4 µM.
Molecule `O=C1[C@H]2ON(c3ccccc3)C(c3ccco3)[C@H]2C(=O)N1c1ccc(Cc2ccc(N3C(=O)[C@@H]4ON(c5ccccc5)C(c5ccco5)[C@@H]4C3=O)cc2)cc1` (some centres undefined) registered a TGI of more than 100 µM.
Still for that read-out and setting: to `O=C(Cl)C1=C(c2ccccc2)C1c1ccccc1` (centres undefined) belongs more than 100 µM.
On the same count and under the same terms, to `Cc1cccc(C)c1N1C(=O)C(=O)C(c2nc3ccccc3s2)/C(=N/NC(=O)NN)C1=O` (centres undefined) belongs more than 100 µM.
For `c1cnn2ncc(-c3ccnc(Nc4ccc5c(c4)OCCO5)n3)c2c1`, the GI50 was 0.0671 µM and the TGI worked out at 0.198 µM.
For `Cc1ccc(-n2nc(C(C)(C)C)cc2NC(=O)NCc2cc(F)ccc2Oc2ccc3c(cnn3CCO)c2)cc1`, the GI50 was 1.19 µM and 2.32 µM; the TGI is > 10 µM and 10.4 µM.
Turning to `COc1ccc2[nH]c(-c3ccc(O)cc3)cc(=O)c2c1`, the TGI was more than 81.2 µM.
The molecule `Cc1cc(C)n(C2=NS(=O)(=O)c3ccccc3N2C)n1` came in with a TGI of more than 100 µM.
Turning to `COc1cccc2c(=O)c3c(sc12)c(NCCCNCCO)nc1ccccc13`, the GI50 was 1.94 µM and the TGI was found to be 3.79 µM.
Molecule `O=C1c2cccc3cccc(c23)C(=O)N1O` had a TGI of more than 100 µM.
Take `COc1ccc(Nc2nccc(N3CCN(c4c5ccc(Cl)cc5nc5ccc(OC)cc45)CC3)n2)cc1`: the GI50 was more than 100 µM and the TGI was more than 100 µM.
On to `CC(=Nc1ccc(S(N)(=O)=O)cc1)c1c(O)[nH]c2ccccc12`, for which the GI50 was more than 25 µM and the TGI was more than 25 µM.
With `COc1cc(CNc2nc3ccc(C(F)(F)F)cc3nc2-c2ccccc2)cc(OC)c1OC`, the TGI is more than 100 µM.
Turning to `CC1=NN(C(=O)c2ccncc2)C(=O)C1N=Nc1ccc(F)cc1` (centres undefined), the TGI was more than 100 µM.
On the same count and under the same terms, next, `O=S1CSSC1`: 36.4 µM; `C=CCNC(=O)N(CCC)CCCC(NC(C)=O)C(=O)NCc1ccccc1` (centres undefined): more than 100 µM; `COc1c(O)c(OC)c2oc(-c3ccc(O)cc3)c(OC)c(=O)c2c1O`: more than 100 µM.
As to `COC(=O)C1C(=O)N(CCc2c[nH]c3ccccc23)C[C@@H]2CCC(=O)C[C@H]12` (some centres undefined), the TGI is more than 100 µM.
Still for that read-out and setting: next, `C[C@]12C/C(=C/O)C(=O)C(O)=C1CC[C@@H]1C2CC[C@@]2(C)C1CC[C@@H]2O` (some centres undefined): 62 µM.
In the case of `O=C1c2ccccc2-c2c1c1c(NCCCO)nc3ccccc3c1n2Cc1ccccc1`, the GI50 was 41.3 µM and the TGI is more than 100 µM.
The corresponding values for `O=C(NCCN1CCNCC1)c1ccc(Nc2nc3ccccc3c3occc23)cc1` are 17 µM and 33.8 µM.

In another assay the test system is A498 renal. In words: NCI tumour cell line growth inhibition, 48 h.
As for `Cc1c2ccncc2c(C)c2c1[nH]c1ccc(O)c(OCC(F)(F)F)c12`, the TGI was determined as 37.5 µM.
On the same count and under the same terms, next, `O=C1[C@H]2ON(c3ccccc3)C(c3ccco3)[C@H]2C(=O)N1c1ccc(Cc2ccc(N3C(=O)[C@@H]4ON(c5ccccc5)C(c5ccco5)[C@@H]4C3=O)cc2)cc1` (some centres undefined): more than 100 µM; `O=C(Cl)C1=C(c2ccccc2)C1c1ccccc1` (centres undefined): more than 100 µM.
Still for that read-out and setting: to `Cc1cccc(C)c1N1C(=O)C(=O)C(c2nc3ccccc3s2)/C(=N/NC(=O)NN)C1=O` (centres undefined) belongs more than 100 µM.
For the molecule `c1cnn2ncc(-c3ccnc(Nc4ccc5c(c4)OCCO5)n3)c2c1`, the GI50 is 0.0492 µM and the TGI is 0.128 µM.
Take `Cc1ccc(-n2nc(C(C)(C)C)cc2NC(=O)NCc2cc(F)ccc2Oc2ccc3c(cnn3CCO)c2)cc1`: the GI50 is 1.02 µM and 1.48 µM; the TGI was 9.34 µM and 6.97 µM.
`COc1ccc2[nH]c(-c3ccc(O)cc3)cc(=O)c2c1` yielded a TGI of 0.725 µM.
The same measure, in the same setting: next, `Cc1cc(C)n(C2=NS(=O)(=O)c3ccccc3N2C)n1`: more than 100 µM.
For the molecule `COc1cccc2c(=O)c3c(sc12)c(NCCCNCCO)nc1ccccc13`, the GI50 is 1.56 µM and the TGI is 3.3 µM.
Molecule `O=C1c2cccc3cccc(c23)C(=O)N1O` had a TGI of more than 100 µM.
For `COc1ccc(Nc2nccc(N3CCN(c4c5ccc(Cl)cc5nc5ccc(OC)cc45)CC3)n2)cc1`, the GI50 was 2.4 µM and the TGI was determined as 31 µM.
The corresponding values for `CC(=Nc1ccc(S(N)(=O)=O)cc1)c1c(O)[nH]c2ccccc12` are more than 25 µM and more than 25 µM.
